Assay results published in ChEMBL document CHEMBL3872201, “Synthesis and antiproliferative activity of a natural like glycoconjugate polycyclic compound” (2016).
Active and inactive are the calls of the source. The calls are words filed in the database; no cut-off is given here.

Columns and labels:
[1] = Antiproliferative activity against human NCI-H522 cells after 48 hrs by sulforhodamine B assay; format: functional; conditions: NCI-H522, 48 h
[2] = system: MDA-MB-231; assay: Effect on cell cycle regulatory protein in human MDA-MB-231 cells assessed as cyclin B1 level at 10 uM after 48 hrs by Western blot analysis relative to control; format: functional
[3] = system: MDA-MB-231; assay: Cytotoxicity against human MDA-MB-231 cells assessed as inhibition of cell viability at 5 to 10 uM up to 72 hrs by MTT assay; format: functional, cell-based
[4] = Antiproliferative activity against human SF539 cells after 48 hrs by sulforhodamine B assay; format: functional; conditions: SF-539, 48 h
[5] = Antiproliferative activity against human OVCAR3 cells after 48 hrs by sulforhodamine B assay; format: functional; conditions: OVCAR-3, 48 h
[6] = Antiproliferative activity against human RPMI8226 cells after 48 hrs by sulforhodamine B assay; format: functional; conditions: RPMI-8226, 48 h
[7] = Antiproliferative activity against human KM12 cells after 48 hrs by sulforhodamine B assay; format: functional; conditions: KM12, 48 h
[8] = Antiproliferative activity against human NCI-ADR-RES cells after 48 hrs by sulforhodamine B assay; format: functional
[9] = Cell cycle arrest in human MDA-MB-231 cells assessed as accumulation at G2/M phase at 5 uM after 48 hrs by propidium iodide staining based flow cytometric analysis (reference value: 19.5%); format: functional
[10] = Antiproliferative activity against human NCI-H23 cells after 48 hrs by sulforhodamine B assay; format: functional; conditions: NCI-H23, 48 h
[11] = system: MDA-MB-231; assay: Effect on cell cycle regulatory protein in human MDA-MB-231 cells assessed as p21 level at 5 uM after 24 hrs by Western blot analysis relative to control; format: functional
[12] = Antiproliferative activity against human OVCAR8 cells after 48 hrs by sulforhodamine B assay; format: functional; conditions: OVCAR-8, 48 h
[13] = system: MDA-MB-231; assay: Effect on cell cycle regulatory protein in human MDA-MB-231 cells assessed as cdc2 level at 5 uM after 48 hrs by Western blot analysis relative to control; format: functional
[14] = Antiproliferative activity against human HCT116 cells after 48 hrs by sulforhodamine B assay; format: functional; conditions: HCT-116, 48 h
[15] = system: MDA-MB-231; assay: Effect on cell cycle regulatory protein in human MDA-MB-231 cells assessed as cyclin B1 level at 5 uM after 48 hrs by Western blot analysis relative to control; format: functional
[16] = Antiproliferative activity against human UACC257 cells after 48 hrs by sulforhodamine B assay; format: functional; conditions: UACC-257, 48 h
[17] = system: MDA-MB-231; assay: Effect on cell cycle regulatory protein in human MDA-MB-231 cells assessed as p21 level at 10 uM after 24 hrs by Western blot analysis relative to control; format: functional
[18] = system: MDA-MB-231; assay: Cytotoxicity against human MDA-MB-231 cells assessed as reduction in cell number at 5 to 10 uM after 24 to 72 hrs by light microscopic analysis; format: functional, cell-based
[19] = Antiproliferative activity against human MDA-MB-468 cells after 48 hrs by sulforhodamine B assay; format: functional; conditions: MDA-MB-468, 48 h
[20] = system: MDA-MB-231; assay: Effect on cell cycle regulatory protein in human MDA-MB-231 cells assessed as cdc2 level at 10 uM after 24 hrs by Western blot analysis relative to control; format: functional
[21] = Cell cycle arrest in human MDA-MB-231 cells assessed as accumulation at G2/M phase at 5 uM after 24 hrs by propidium iodide staining based flow cytometric analysis (reference value: 20.4%); format: functional
[22] = Antiproliferative activity against human MCF7 cells after 48 hrs by sulforhodamine B assay; format: functional; conditions: MCF7, 48 h
[23] = Antiproliferative activity against human K562 cells after 48 hrs by sulforhodamine B assay; format: functional; conditions: K562, 48 h
[24] = system: MDA-MB-231; assay: Effect on cell cycle regulatory protein in human MDA-MB-231 cells assessed as cdc2 level at 5 uM after 24 hrs by Western blot analysis relative to control; format: functional
[25] = Cell cycle arrest in human MDA-MB-231 cells assessed as accumulation at G0/G1 phase at 5 uM after 24 hrs by propidium iodide staining based flow cytometric analysis (reference value: 66.5%); format: functional
[26] = Antiproliferative activity against human SR cells after 48 hrs by sulforhodamine B assay; format: functional
[27] = Antiproliferative activity against human UACC62 cells after 48 hrs by sulforhodamine B assay; format: functional; conditions: UACC-62, 48 h
[28] = Cell cycle arrest in human MDA-MB-231 cells assessed as accumulation at G2/M phase at 10 uM after 24 hrs by propidium iodide staining based flow cytometric analysis (reference value: 20.4%); format: functional
[29] = Antiproliferative activity against human M14 cells after 48 hrs by sulforhodamine B assay; format: functional; conditions: M14, 48 h
[30] = Antiproliferative activity against human SKOV3 cells after 48 hrs by sulforhodamine B assay; format: functional; conditions: SK-OV-3, 48 h
[31] = Antiproliferative activity against human HL-60(TB) cells after 48 hrs by sulforhodamine B assay; format: functional; conditions: HL-60, 48 h
[32] = Antiproliferative activity against human A549/ATCC cells after 48 hrs by sulforhodamine B assay; format: functional; conditions: A549, 48 h
[33] = Antiproliferative activity against human DU145 cells after 48 hrs by sulforhodamine B assay; format: functional; conditions: DU-145, 48 h
[34] = Antiproliferative activity against human U251 cells after 48 hrs by sulforhodamine B assay; format: functional; conditions: U-251, 48 h
[35] = Cell cycle arrest in human MDA-MB-231 cells assessed as accumulation at subG0/G1 phase at 10 uM after 48 hrs by propidium iodide staining based flow cytometric analysis (reference value: 8.8%); format: functional
[36] = read-out: LC50 (the source's name)

C=C1c2c(C)nn(-c3ccc(C#CCO[C@@H]4O[C@H](CO)[C@@H](O)[C@H](O)[C@H]4O)cc3)c2N(C)C23CC1C1(C)c4c(C)nn(-c5ccc(C#CCO[C@@H]6O[C@H](CO)[C@@H](O)[C@H](O)[C@H]6O)cc5)c4N(C)C(C)(CC12)C3 (stereo partly specified)
GI50 [1]: 1.67 µM | TGI [1]: 3.26 µM | CC50 [1, 36]: 6.37 µM | fold change (FC) [2]: 0.5 | inhibition [3]: Active | GI50 [4]: 1.78 µM | TGI [4]: 3.33 µM | CC50 [4, 36]: 6.22 µM | GI50 [5]: 1.52 µM | TGI [5]: 3.8 µM | CC50 [5, 36]: 9.49 µM | GI50 [6]: 0.29 µM | TGI [6]: 1.72 µM | CC50 [6, 36]: 100 µM | GI50 [7]: 1.44 µM | TGI [7]: 2.9 µM | CC50 [7, 36]: 5.84 µM | GI50 [8]: 5.43 µM | TGI [8]: 47 µM | CC50 [8, 36]: 100 µM | Activity [9]: 30.6% | GI50 [10]: 2.33 µM | TGI [10]: 6.59 µM | CC50 [10, 36]: 100 µM | fold change (FC) [11]: 0.1 | GI50 [12]: 1 µM | TGI [12]: 3.84 µM | CC50 [12, 36]: 55.1 µM | fold change (FC) [13]: 1.5 | GI50 [14]: 1.27 µM | TGI [14]: 2.97 µM | fold change (FC) [15]: 1 | GI50 [16]: 1.82 µM | TGI [16]: 4.56 µM | CC50 [16, 36]: 15.4 µM | fold change (FC) [17]: 1 | Activity [18]: Active | GI50 [19]: 1.34 µM | TGI [19]: 2.73 µM | CC50 [19, 36]: 5.57 µM | fold change (FC) [20]: 0.8 | Activity [21]: 24.4% | GI50 [22]: 1.38 µM | TGI [22]: 3.2 µM | CC50 [22, 36]: 7.42 µM | GI50 [23]: 1.89 µM | TGI [23]: 6.75 µM | CC50 [23, 36]: > 100 µM | fold change (FC) [24]: 0.9 | Activity [25]: 56.9% | GI50 [26]: 3.28 µM | TGI [26]: 100 µM | CC50 [26, 36]: 100 µM | GI50 [27]: 1.22 µM | TGI [27]: 2.86 µM | CC50 [27, 36]: 6.71 µM | Activity [28]: 36.6% | GI50 [29]: 1.67 µM | TGI [29]: 3.44 µM | CC50 [29, 36]: 7.06 µM | GI50 [30]: 1.72 µM | TGI [30]: 3.11 µM | CC50 [30, 36]: 5.61 µM | GI50 [31]: 2.07 µM | TGI [31]: 4.43 µM | CC50 [31, 36]: 9.49 µM | GI50 [32]: 1.68 µM | TGI [32]: 4.09 µM | CC50 [32, 36]: 9.98 µM | GI50 [33]: 1.97 µM | TGI [33]: 5.16 µM | CC50 [33, 36]: 17.3 µM | GI50 [34]: 1.19 µM | TGI [34]: 2.59 µM | CC50 [34, 36]: 5.61 µM | Activity [35]: 4.6%
